Paper PMC7559897, “Designed Antimicrobial Peptides Against Trauma-Related Cutaneous Invasive Fungal Wound Infections” (Journal of Fungi, 2020)
≈ marks a conversion by molar mass, not a printed value. Square brackets hold non-standard residues; d marks the D form. Peptide text beside a SMILES is read from it. Orn = NCCC[C@H](N)C(=O)O

Key:
[1] = test system: Candida albicans Y-6359; type: cell-based; conditions: Y-6359, 24 h
Protocol: (§1) Assays were performed by Trideum Biosciences (Frederick, MD, USA). Isolates were thawed from −80 °C storage and sub-cultured on trypticase soy agar plates at 37 °C prior to experimentation. A single colony was aseptically picked from the agar plate and released in 30 mL trypticase soy broth and incubated overnight at 37 °C incubator. Following which the bacterial culture was diluted to approximately 10^6 colony forming units (CFU)/mL using 2X cation adjusted Mueller–Hinton broth and added to the dAMP solutions (0, 2, 4, 8, 16, 32, 64, and 128 μg/mL) which had been formulated in water at 256 μg/mL and then serially diluted in media on 96-well pates. For fungal evaluation, potato dextrose broth and potato dextrose agar plates were used. The treated cultures were then incubated for 24 h at 37 °C and pathogen growth was measured by absorbance at 600 nm. Four replicas were included for each dAMP concentration. Each MIC was assigned to the lowest test agent concentration resulting in at least three out of four wells showing no growth based on an optical density (OD) reading of <0.1.

[2] = test system: Aspergillus flavus MYA-3651; type: cell-based; conditions: 24 h
Protocol: as §1

[3] = test system: Aspergillus flavus MYA-1004; type: cell-based; conditions: 24 h
Protocol: as §1

[4] = test system: Mucor circinelloides NRRL 3631; type: cell-based; conditions: NRRL 3631, 24 h
Protocol: as §1

[5] = test system: Absidia corymbifera NRRL 6251; type: cell-based; conditions: NRRL 6251, 24 h
Protocol: as §1

[6] = test system: E. cloacae 6054; type: cell-based; conditions: 6054, 24 h
Protocol: as §1

[7] = test system: Candida krusei Y-27803; type: cell-based; conditions: Y-27803, 24 h
Protocol: as §1

[8] = test system: Aspergillus fumigatus 9651; type: cell-based; conditions: 9651, 24 h
Protocol: as §1

[9] = test system: Candida parapsilosis Y-1761; type: cell-based; conditions: Y-1761, 24 h
Protocol: as §1

[10] = test system: Candida albicans Y-326; type: cell-based; conditions: Y-326, 24 h
Protocol: as §1

[11] = test system: Fusarium solani NRRL 28548; type: cell-based; conditions: NRRL 28548, 24 h
Protocol: as §1

[12] = test system: E. cloacae 6053; type: cell-based; conditions: 6053, 24 h
Protocol: as §1

[13] = test system: Candida krusei Y-27825; type: cell-based; conditions: Y-27825, 24 h
Protocol: as §1

[14] = test system: S. epidermis ATCC 51625; type: cell-based; conditions: ATCC 51625, 24 h
Protocol: as §1

[15] = test system: Aspergillus fumigatus 9648; type: cell-based; conditions: 9648, 24 h
Protocol: as §1

[16] = test system: Candida parapsilosis Y-1763; type: cell-based; conditions: Y-1763, 24 h
Protocol: as §1

[17] = test system: S. aureus 49525 (Xen36 luciferase); type: cell-based, Staphylococcus aureus; conditions: 8 μg/mL, 60 min incubation, bioluminescence, triplicates from two independent experiments
Excerpt: (§2) Fungal and bacterial strains were obtained from American Type Culture Collection (ATCC, Manassas, VA, USA) or the clinical isolate collection at Trideum Biosciences (Frederick, MD, USA) and are presented in Table 1 and Table 2, respectively. Bioluminescence strains of P. aeruginosa 19660, transfected with the Xen5 luciferase gene, and S. aureus ATCC R 49525TM (Wright), transfected with the Xen36 luciferase gene, were obtained from Perkin Elmer (Waltham, MA, USA).
(§3) Real-time killing of bacterial cells, P. aeruginosa or S. aureus, and mammalian cytotoxicity to assess dAMP off-target toxicity was evaluated using bioluminescent cells. The L929 fibroblast cells (ATCC, Manassas, VA, USA) were made bioluminescent by transfection with a luciferase gene. Cells (1 × 10^4 cells, 100 μL) were plated in 96-well black-walled plates and the candidate dAMPs were 2-fold serially diluted from specified concentrations in growth medium supplemented with 150 μg/mL D-luciferin. Each concentration was performed in triplicate, with the final volume being 200 μL. Imaging was performed at select times after the addition of the dAMP, and compared to concurrently run vehicle-control, using an IVIS Lumina imaging system (Caliper Life Sciences, Inc., Hopkinton, MA, USA). For imaging, the 96-well plate was positioned on the stage (12.5-cm field of view), with an open emission filter, binning of 4, and f-stop 1 and a 1-min exposure time. Monitoring bioluminescence allows assessment of the kinetics of cellular viability as there is a tight correlation between the bioluminescent signal and cell viability. Data analysis was performed using the Living Image software program (version 4.3, Caliper Life Sciences, Inc., Hopkinton, MA, USA).
(§4) Figure 3 RP553, RP556, RP557 rapidly destroy P. aeruginosa and S. aureus. The bioluminescence of viable P. aeruginosa 19,660 and S. aureus 49,525 cells was quantitated in real time with an IVIS Lumina bioimaging system. Data represent the mean ± SE of triplicate replicates from two independent experiments. For some points, the error bars are shorter than the height of the symbols.

[18] = test system: P. aeruginosa ATCC 19660; type: cell-based, Pseudomonas aeruginosa; conditions: ATCC 19660, 24 h
Protocol: as §1

[19] = test system: P. aeruginosa ATCC 27853; type: cell-based, Pseudomonas aeruginosa; conditions: ATCC 27853, 24 h
Protocol: as §1

[20] = test system: P. aeruginosa 6186; type: cell-based, Pseudomonas aeruginosa; conditions: 6186, 24 h
Protocol: as §1

[21] = test system: A. baumannii ATCC 17978; type: cell-based, Acinetobacter baumannii; conditions: ATCC 17978, 24 h
Protocol: as §1

[22] = test system: A. baumannii 6043; type: cell-based, Acinetobacter baumannii; conditions: 6043, 24 h
Protocol: as §1

[23] = test system: A. baumannii 6838; type: cell-based, Acinetobacter baumannii; conditions: 6838, 24 h
Protocol: as §1

[24] = test system: P. aeruginosa 19660 (Xen5 luciferase); experiment: Bioluminescent time-kill assay; type: cell-based, Pseudomonas aeruginosa; conditions: 8 μg/mL; RP553 at 60 min; bioluminescence
Excerpt: as §2, §3, §4

[25] = test system: S. aureus 6061; type: cell-based, Staphylococcus aureus; conditions: 6061, 24 h
Protocol: as §1

[26] = test system: S. aureus B-767; type: cell-based, Staphylococcus aureus; conditions: B-767, 24 h
Protocol: as §1

[27] = test system: MRSA 6313; type: cell-based, Staphylococcus aureus; conditions: 6313, 24 h
Protocol: as §1

[28] = test system: MRSA 6381; type: cell-based, Staphylococcus aureus; conditions: 6381, 24 h
Protocol: as §1

[29] = test system: MRSA ATCC 33592; type: cell-based, Staphylococcus aureus; conditions: ATCC 33592, 24 h
Protocol: as §1

[30] = test system: K. pneumonia 6069; type: cell-based, Klebsiella pneumoniae; conditions: 24 h
Protocol: as §1

[31] = test system: K. pneumonia ATCC 10031; type: cell-based, Klebsiella pneumoniae; conditions: ATCC 10031, 24 h
Protocol: as §1

[32] = test system: vulvovaginal candidiasis infection; conditions: rodent vulvovaginal candidiasis, after three days of daily treatment; cited from earlier work
Excerpt: The dAMPs RP504, RP554 and RP557 were thus tested for their ability to treat a rodent vulvovaginal candidiasis infection. […] A daily dose with a 2% concentration lowered the CFU/sample by more than 4 logs compared to the con ...

Structure (SMILES)	MIC against Candida albicans Y-6359 [1]	MIC against Aspergillus flavus MYA-3651 [2]	MIC against Aspergillus flavus MYA-1004 [3]	MIC against Mucor circinelloides NRRL 3631 [4]	MIC against Absidia corymbifera NRRL 6251 [5]	MIC against E. cloacae 6054 [6]	MIC against Candida krusei Y-27803 [7]	MIC against Aspergillus fumigatus 9651 [8]	MIC against Candida parapsilosis Y-1761 [9]	MIC against Candida albicans Y-326 [10]	MIC against Fusarium solani NRRL 28548 [11]	MIC against E. cloacae 6053 [12]	MIC against Candida krusei Y-27825 [13]	MIC against S. epidermis ATCC 51625 [14]	MIC against Aspergillus fumigatus 9648 [15]	MIC against Candida parapsilosis Y-1763 [16]	MIC against P. aeruginosa ATCC 19660 [18]	MIC against P. aeruginosa ATCC 27853 [19]	MIC against P. aeruginosa 6186 [20]	MIC against A. baumannii ATCC 17978 [21]	also measured
CC[C@H](C)[C@H](NC(=O)[C@H](CCCCN)NC(=O)[C@H](CC(C)C)NC(=O)[C@H](CCCN)NC(=O)[C@H](CC(C)C)NC(=O)[C@H](CCCNC(=N)N)NC(=O)[C@H](C)NC(=O)[C@H](CCCNC(=N)N)NC(=O)[C@@H](NC(=O)[C@H](CCCN)NC(=O)[C@H](Cc1ccccc1)NC(=O)[C@H](CCCNC(=N)N)NC(=O)[C@H](C)NC(=O)[C@H](CCCCN)NC(=O)[C@@H](NC(=O)[C@H](CCCN)NC(=O)[C@@H](N)Cc1ccccc1)[C@@H](C)CC)C(C)C)C(N)=O [RP553] (H-F[Orn]IKARF[Orn]VRARL[Orn]LKI-NH2)	64 µg/mL (≈ 30.9 µM)	128 µg/mL (≈ 61.8 µM)	128 µg/mL (≈ 61.8 µM)	64 µg/mL (≈ 30.9 µM)	2 µg/mL (≈ 0.965 µM)	2 µg/mL (≈ 0.965 µM)	32 µg/mL (≈ 15.4 µM)	64 µg/mL (≈ 30.9 µM)	64 µg/mL (≈ 30.9 µM)	64 µg/mL (≈ 30.9 µM)	2 µg/mL (≈ 0.965 µM)	4 µg/mL (≈ 1.93 µM)	32 µg/mL (≈ 15.4 µM)	2 µg/mL (≈ 0.965 µM)	128 µg/mL (≈ 61.8 µM)	32 µg/mL (≈ 15.4 µM)	8 µg/mL (≈ 3.86 µM)	4 µg/mL (≈ 1.93 µM)	8 µg/mL (≈ 3.86 µM)	4 µg/mL (≈ 1.93 µM)	S. aureus killing [17]: 14%; MIC against A. baumannii 6043 [22]: 16 µg/mL (≈ 7.72 µM); MIC against A. baumannii 6838 [23]: 8 µg/mL (≈ 3.86 µM); P. aeruginosa killing (in words) [24]: nearly all; MIC against S. aureus 6061 [25]: 8 µg/mL (≈ 3.86 µM); MIC against S. aureus B-767 [26]: 4 µg/mL (≈ 1.93 µM); MIC against MRSA 6313 [27]: 4 µg/mL (≈ 1.93 µM); MIC against MRSA 6381 [28]: 8 µg/mL (≈ 3.86 µM); MIC against MRSA ATCC 33592 [29]: 4 µg/mL (≈ 1.93 µM); MIC against K. pneumonia 6069 [30]: 4 µg/mL (≈ 1.93 µM); MIC against K. pneumonia ATCC 10031 [31]: 4 µg/mL (≈ 1.93 µM)
CC[C@H](C)[C@H](NC(=O)[C@H](CCCN)NC(=O)[C@H](C)NC(=O)[C@H](CCCN)NC(=O)[C@H](CC(C)C)NC(=O)[C@H](CCCN)NC(=O)[C@@H](NC(=O)[C@H](CCCN)NC(=O)[C@@H](NC(=O)[C@H](CCCN)NC(=O)[C@H](C)NC(=O)[C@H](CCCN)NC(=O)[C@H](CC(C)C)NC(=O)[C@H](CCCN)NC(=O)[C@@H](N)Cc1ccccc1)[C@@H](C)CC)C(C)C)C(=O)N[C@@H](CCCN)C(=O)N[C@@H](CC(C)C)C(N)=O [RP554] (H-F[Orn]L[Orn]A[Orn]I[Orn]V[Orn]L[Orn]A[Orn]I[Orn]L-NH2)	32 µg/mL (≈ 17 µM)	32 µg/mL (≈ 17 µM)	64 µg/mL (≈ 34 µM)	32 µg/mL (≈ 17 µM)	4 µg/mL (≈ 2.12 µM)	2 µg/mL (≈ 1.06 µM)	16 µg/mL (≈ 8.49 µM)	32 µg/mL (≈ 17 µM)	16 µg/mL (≈ 8.49 µM)	32 µg/mL (≈ 17 µM)	2 µg/mL (≈ 1.06 µM)	4 µg/mL (≈ 2.12 µM)	16 µg/mL (≈ 8.49 µM)	2 µg/mL (≈ 1.06 µM)	64 µg/mL (≈ 34 µM)	8 µg/mL (≈ 4.25 µM)	8 µg/mL (≈ 4.25 µM)	4 µg/mL (≈ 2.12 µM)	8 µg/mL (≈ 4.25 µM)	4 µg/mL (≈ 2.12 µM)	reduction of CFU/tissue sample [32]: ≥ 2.5 logs; MIC against A. baumannii 6043 [22]: 8 µg/mL (≈ 4.25 µM); MIC against A. baumannii 6838 [23]: 4 µg/mL (≈ 2.12 µM); MIC against S. aureus 6061 [25]: 32 µg/mL (≈ 17 µM); MIC against S. aureus B-767 [26]: 4 µg/mL (≈ 2.12 µM); MIC against MRSA 6313 [27]: 32 µg/mL (≈ 17 µM); MIC against MRSA 6381 [28]: 32 µg/mL (≈ 17 µM); MIC against MRSA ATCC 33592 [29]: 32 µg/mL (≈ 17 µM); MIC against K. pneumonia 6069 [30]: 16 µg/mL (≈ 8.49 µM); MIC against K. pneumonia ATCC 10031 [31]: 8 µg/mL (≈ 4.25 µM)
